Data taken from patent US20220401438A1, “CANCER THERAPEUTIC METHODS” (University Health Network, priority 2021, published 2022).

Key:
[1] = test system: cancer cell lines not having gene mutations identified by the CRISPR screen analysis; assay: In vitro combination of itraconazole with lysosome targeting agents; type: cell-based; conditions: for sensitivity of cell lines to itraconazole when treated with the agent: cell lines without the CRISPR-identified mutations
[2] = test system: TOV1946 stably expressing GFP conjugated TFEB; assay: TFEB nuclear translocation; type: cell-based; conditions: CQ 10 μM alone or with Itra 5 μM
Procedure: FIGS. 11A-B. FIG. 11A) Top, analysis of lysosomal pattern by LAMP1 immunofluorescence and relative quantification in TOV21g treated with Itra 5 μM (15)+/−CQ 5 μM (CQ5). Bottom, Analysis of lysosomal function and relative quantification in TOV21g treated as above. FIG. 11B) Analysis and quantification of TFEB nuclear translocation in TOV1946 stably expressing GFP conjugated TFEB and treated with Itra 5 μM (5) +/−CQ 10 μM (CQ10).
Member of the microphtalmia (MiT) family (TFEB, […], TFE3) are transcription factors activated in starvation or lysosomal dysfunction conditions. Once activated, they translocate to the nucleus where they promote the expression of a network of genes related to lysosomal function and biogenesis^50.

[3] = Tissue pharmacokinetic analyses (HPLC-MS/MS) of tumour biopsies; type: in vivo, human; conditions: for intratumor concentration (highest): patient HYDRA-005, DL1, on-treatment biopsy; for estimated tissue concentration: patient HYDRA-005 for Itra, assuming 1 μg of tissue corresponds to 1 μl; for detection in tumour biopsies: post-treatment samples, ten patients, none of the pre-treatment samples
Procedure: Tumour assessment occurred every 8 weeks (+/−1 week) by CT scan. Toxicity was assessed by Common Terminology Criteria (CTCAE) version 4.0. Pre- and on treatment biopsies (on cycle 1, day 8 to 14) were mandatory. Tumour Itra and HCQ concentrations were determined by a HPLC-MS/MS method with itraconazole-D9 and hydroxychloroquine-D4 as the internal standard. The HPLC system was interfaced to a SCIEX TRIPLE QUAD 6500+ mass spectrometer operating in the […] electrospray ionization mode. Data collection, peak integration, and calculation were performed using Analyst® 1.7 software.

Row | SMILES | sensitivity of cell lines to itraconazole when treated with the agent [1] | intratumor concentration (highest) [3] | estimated tissue concentration [3] [µM] | detection in tumour biopsies [3] | other results
1 | CO/C1=C\C(C)=C\[C@@H](C)[C@@H](O)[C@@H](C)C/C(C)=C/C=C/[C@H](OC)[C@@H]([C@@H](C)[C@@H](O)[C@H](C)[C@@]2(O)C[C@@H](O)[C@H](C)[C@@H](C(C)C)O2)OC1=O [Bafilomycin A] | increased sensitivity to itraconazole | – | – | – | effect of Itra combined with lysosome targeting agent ([1]; data not shown): combined effect
2 | CCN(CC)CCCC(C)Nc1ccnc2cc(Cl)ccc12 (stereo not shown) [CQ, chloroquine] | – | – | – | – | TFEB nuclear translocation, cells [2]: about 50%
3 | CCN(CCO)CCCC(C)Nc1ccnc2cc(Cl)ccc12 (stereo not shown) [HCQ, hydroxychloroquine] | – | 3.5 ng/mg of tissue | 5 to 10 | detectable in all patients | –
4 | CCC(C)n1ncn(-c2ccc(N3CCN(c4ccc(OCC5COC(Cn6cncn6)(c6ccc(Cl)cc6Cl)O5)cc4)CC3)cc2)c1=O (stereo not shown) [Itra, Itraconazole] | – | 0.745 ng/mg of tissue | ≤ 1 | detectable in all patients | –
5 | CC/C(=C(\c1ccccc1)c1ccc(OCCN(C)C)cc1)c1ccccc1 [tamoxifen] | increased sensitivity to itraconazole | – | – | – | –
